Source: PMC2783692 (Analytical biochemistry, 2009)

How the values were obtained:
[1] = test system: chromatophore membranes; test: PWR ligand binding to deposited chromatophore membrane fragments; parameters: species or system Rhodopseudomonas sphaeroides
[2] = biological target: cannabinoid (CB1) receptor; test: PWR ligand binding to native rat trigeminal ganglion membrane fragments; conditions: Figure 4, negative spectral shifts
[3] = PWR ligand binding to bare sensor surface; conditions: bare sensor versus chromatophore membrane fragments

Molecule: bovine serum albumin: control protein replacing cyt c2
- changes in PWR spectral position (binding) ([1]; control protein replacing cyt c2, up to 100 μM protein): did not observe any measurable changes

Molecule: Cc1c(C(=O)c2cccc3ccccc23)c2cccc3c2n1[C@H](CN1CCOCC1)CO3 [WIN 55,212–2]
- KD values compared with radioligand binding and lipid bilayer PWR studies [2]: excellent agreement

Molecule: CCCCCCC(C)(C)c1ccc([C@@H]2C[C@H](O)CC[C@H]2CCCO)c(O)c1 [CP 55,940]
- KD values compared with radioligand binding and lipid bilayer PWR studies [2]: excellent agreement

B1: cyt c2: Reduced Rhodobacter capsulatus cytochrome (cyt) c2, isolated and purified (protein, UniProt P00094 22-137, looked up)
Cytochrome c2: GDAAKGEKEFNKCKTCHSIIAPDGTEIVKGAKTGPNLYGVVGRTAGTYPEFKYKDSIVALGASGFAWTEEDIATYVKDPGAFLKEKLDDKKAKTGMAFKLAKGGEDVAAYLASVVK
modifications: reduced
- binding weaker on bare sensor than on chromatophore fragments [3]: approximately 10 fold
- Kd ([1]; read-out: apparent binding constant (KD), PWR, reduced cyt c2, hyperbolic fit, minimum of three separate experiments): 2500 nM
